In patent US9162975B2, “Phenyl carbamate compounds for use in alleviating or treating pain” (Bio-Pharm Solutions Co., Ltd., priority 2011, dated 2015):

How the values were obtained:
[1] = system: vincristine-induced pain model in rats; assay: Antiallodynic activity on vincristine-induced pain model, von Frey; format: in vivo, Sprague-Dawley rats; settings: 0.5 hr, paw withdrawal threshold relative to sham
Procedure: Male, Sprague-Dawley rats (300-320 g, Nara Bio, Korea) were habituated for 1 week before surgery and allowed free access to food and water throughout the experimentation. Room temperature and humidity were maintained at 24±2° C. and 50±10%, respectively.
Vincristine was established by the procedure of Natsuko et al. (2001) with minor modifications. Vincristine was intravenously infused continuously for 14 days using a mini-osmotic pump as follows. Vincristine sulfate solution (Hospira, Australia) was diluted with 0.9% saline to 30 ug/kg, final dose. The pumps (Alzet Model 2002, USA) were filled with the vincristine solution and primed by incubation at 37° C. for 4 h before the infusion. Briefly, animal under gaseous anesthesia with isoflurane a 4:4 flow ratio of NO2. […]
(§1) Tactile sensitivity (Mechanical allodynia) was evaluated using von Frey monofilaments before and after treatment, and animals were used withdrawal threshold value was less than 4 g. […] The tactile sensitivity for ipsilateral hind paw was measured using the up-and-down method (Dixon, 1980) with seven von Frey monofilaments (0.4, 1, 2, 4, 6, 8, and 15 g) to 3 trials. […] The 50% paw withdrawal threshold for each paw was calculated using the following formula: [Xth] log=[vFr] log+ky where [vFr] is the force of the last von Frey used, k=0.2249 which is the average interval (in log units) between the von Frey monofilaments, and y is a value that depends upon the pattern of withdrawal responses (Dixon, 1980).
Antiallodynic effect of compound of Example 1 was evaluated at the dose of 1, 5 and 10 mg/kg (n=6), intraperitoneally administrated in a volume of 5 ul/g, bw in a vehicle of 30% (v/v) PEG. […]
The relative values compared to the sham (% control) were calculated and shown in Table 6 and FIG. 6, which show an antiallodynic effect of Compound 1 on vincristine-induced pain model in rats.

ICR mice = assay: Writhing test (acetic acid); format: in vivo; settings: Mus musculus, po, 1 h
Procedure: To examine the pain relief effect of the phenyl carbamate compounds, a writhing test was conducted in general pain animal model referring to Fischer, L. G. et al. (2008).
ICR mice (male, 24-28 g; Orient Bio, Korea) were habituated before test in test room for 1 hour Animals were fasted 2 hr, before administration of compounds. Each of Compound 1, 2, 3, 4, 5, 63, 65, and 67 was orally administered at the dose of 20 mg/kg, 10 ul/g, bw (n=3˜5/group). All compounds were dissolved in a vehicle of 30% (v/v) PEG 400 or 20% (v/v) Tween 80. The control group was treated the vehicle without compounds.
One hour after the administration of Compounds, 0.6% acetic acid at the dose of 10 ul/g, bw was injected into the mice. Animals were habituated in the cage for 5 min 5 min after habituation, the number of writhes (abdominal constriction) for 15 min was counted referring to Korzeniewska-Rybicka, I. et al. (1998) and compared with that of a control.

[2] = system: STZ-induced pain model in rats; assay: Antiallodynic activity on streptozotocin (STZ)-induced diabetic pain model, von Frey; format: in vivo, Sprague-Dawley rats; settings: 0.5 hr, paw withdrawal threshold relative to sham
Procedure: Male, Sprague-Dawley rats (200-220 g, Nara Bio, Korea) were habituated for 1 week before surgery and allowed free access to food and water throughout the experimentation. Room temperature and humidity were maintained at 24±2° C. and 50±10%, respectively.
STZ-induced diabetic pain model was established with a modified method of Rakieten et al. (1963) and Bertrand Aubel et al. (2004). All animals were fasted 4 to 6 hr prior to STZ injection. STZ (sigma, USA) was dissolved in 20 mM sodium citrate buffer, pH 5.5 (sigma, USA) and intraperitoneally injected at 75 mg/kg, 4 ul/g, bw into the rats Sham controls were injected with same volume of 20 mM sodium citrate buffer, pH 5.5 and vehicle controls were identical to STZ model, except for administration of vehicles. Rats were supplied with 10% sucrose water for 2 days against sudden hypoglycemia. 3 days later, the induction of diabetes was checked by measurement of tail vein blood glucose levels with a blood glucose meter. (LifeScan OneTouch Ultra, USA). If blood glucose was not >300 mg/dl by 72 hr, the rat was excluded from the diabetic group.
as §1, with “treatment of compound example 1” for “treatment,”
Antiallodynic effect of compound of Example 1 was evaluated at the dose of 10, 30 and 60 mg/kg (n=6), intraperitoneally administrated in a volume of 5 ul/g, bw in a vehicle of 30% (v/v) PEG. […]

[3] = dose 10 mg/kg intraperitoneally

C[C@H](OC(N)=O)[C@@H](O)c1ccccc1Cl [Example 1, 1-(2-chlorophenyl)-(S)-1-hydroxypropyl-(S)-2-carbamate]
% Control (vincristine-induced pain model) ([1]; dose 1 mg/kg intraperitoneally): 20.7% | % Control (vincristine-induced pain model) ([1]; dose 5 mg/kg intraperitoneally): 63.1% | % Control (vincristine-induced pain model) [1, 3]: 71.7% | ED50 (ICR mice): 14.1 mg/kg | % Control (STZ-induced pain model) [2, 3]: 33.9% | % Control (STZ-induced pain model) ([2]; dose 30 mg/kg intraperitoneally): 49.9% | % Control (STZ-induced pain model) ([2]; dose 60 mg/kg intraperitoneally): 73.7%
